Results on 8 molecules are retold here after patent US20250051703A1, “EGG OPENER, EX OVO TUMOR XENOGRAFT METHOD, THERAPEUTIC COMPOUND ASSAY, THERAPEUTIC COMPOUND TESTING METHOD VIA EX OVO QUAIL EGG XENOGRAFT ASSAY” (CHILDREN'S CANCER THERAPY DEVELOPMENT INSTITUTE, priority 2021, published 2025).

pIC50: −log10 of the molar value. “Also recorded” adds a separate entry of the source.

The subject of series [1] is Hep3B human hepatocellular carcinoma. The following applies: literature (Li, et al.); cited from earlier work.
Series [2] concerns BT474 human breast cancer cell line. In words: BT474 xenograft CAM assay, radiance. The series is classed as in vivo. The note with it: FIGS. 18C and 18D.
Series [3] relates to B16F10 murine melanoma cell line. Briefly: B16F10 xenograft CAM assay, radiance. The note with it: FIG. 18A. The class given is in vivo. How it is done: (§1) Validation assays are conducted to correlate murine and human cell lines across a range of biologicals and small molecule drugs for pediatric and adult cell lines. B16F10 is a murine melanoma cell line constitutively expressing firefly luciferase (available as cat #BW124734 from Perkin-Elmer, Akron, Ohio USA), which is used to form a CAM xenograft as per the invention herein with the difference of being an adult-type cancer cell line, and radiance reflecting cell viability as impaired by drug. In FIGS. 18A-18J, to analyze drug efficacy on tumor cells, luciferin is added to the scaffold and then imaged by a CCD camera to determine the total xenograft cell viability, with the results indicated as radiance (e.g., steradians/cm^2/s) on the Y axis. See also FIG. 1 at Step 14.

In series [4] the test system is HepG2 xenograft CAM assay. Briefly: Quail dose response assay (ex ovo CAM xenograft, osmotic bead drug depot), HepG2. The series is classed as in vivo, human. The following applies: for dose-response in HepG2 xenograft CAM assay: FIGS. 18H and 18I, radiance. How it is done: (§2) The tumor modules for dose response assay are generated as described above but with 5×10^5 cells per 50 μl. Drug was dissolved in DMSO for all levels to a final tumor module concentration of vehicle control, 0.3 μM, 3 μM, or 30 μM with n=6. P-10 beads (catalog #1504144, Bio-Rad, Hercules, CA, USA) are soaked in PBS at the concentration of the modules for four hours at room temperature. Approximately 50 μl of bead solution is added to a 9.5×1.5 mm plastic ring placed on top of the tumor module forming a drug depot. The drug depot provided a constant source of drug keeping the tumor module at a constant concentration despite drug leaving the module for the quail, as shown in FIG. 17. The IR820 has an exponential range between 0.001 and 1 μM as shown in the dose-response curve of FIG. 17A in lumens v. IR820 concentration.
(§3) The quail with tumor module models and drug depots are incubated for 72 hours. Afterwards, 150 μl of 15 mg/ml luciferin (cat #122799, Perkin Elmer) in PBS is added to the modules incubated for 10 minutes and then imaged on an IVIS Lumina (PerkinElmer) for between 15 seconds (for cell lines HepG2) or 1 minute (for cell lines HB243 and HB282).
as §1, with “14. […]” for “14.”

Series [5] deals with U48484 mouse rhabdomyosarcoma cells. Briefly: Quail tumor assay: U48484 tumor module xenograft on quail CAM, bioluminescence. The class given is in vivo. How it is done:
U48484 mouse rhabdomyosarcoma cells were cultured, trypsinized and added to two different vials of hydrogel making a concentration of 10^6 cells per 50 μl. BEZ235 (cat #S1009, Selleck Chemicals, Houston, TX) in a solution of 0.1% DMF (cat #TS-20673, Thermo Fisher Scientific) in PBS was added to 10^6 U48484 mouse rhabdomyosarcoma cells mixed with 50 μl hydrogel for a final concentration of 500 nM BEZ235. For untreated eggs, 0.1% DMF in PBS was used as a control. 50 μl of cells/hydrogel/drug mixture were added to each scaffold and incubated for approximately 30-45 minutes at 37° C. and 100% humidity. As detailed above, a superficial injury was created on the chorioallantoic membrane and tumor module containing either drug or control was placed on top. Quail bearing tumor module models were incubated for 72 hours. Add the end of the incubation, 100 μl of PBS containing 1.5 mg of luciferin-d (cat #122799, PerkinElmer) was added to the 3D scaffold, incubated for 10 minutes in the dark, and bioluminescence was measured using a Fluorchem instrument (ProteinSimple, San Jose, CA). The quail were imaged with an 8 minute exposure for total light emission.
u48484 is a murine rhabdomyosarcoma cell line constitutively expressing firefly luciferase (available from the originating laboratory as described in Aslam et al, PDGFRβ reverses EphB4 signaling in alveolar rhabdomyosarcoma, Proc Natl Acad Sci USA. 2014 Apr. 29; 111 (17): 6383-8. doi: 10.1073/pnas. 1403608111; PMID 24733895), which is used to form a CAM xenograft as per the invention herein except being a non-human tumor cell line.
U48484 mouse rhabdomyosarcoma cells were cultured, trypsinized and added to two different vials of hydrogel making a concentration of 10^6 cells per 50 μl. […] Add the end of the incubation, 100 μl of PBS containing 1.5 mg of luciferin-d (cat #122799, Perkin Elmer) was added to the 3D scaffold, incubated for 10 minutes in the dark, and bioluminescence was measured using a Fluorchem instrument (Protein Simple, San Jose, CA). […]

For series [6] the following is noted: cited from earlier work.
In series [7] the test system is e10 quail embryo liver and kidney. The following applies: Japanese quail, in vivo.
Protocol: Cediranib (Cat #S1017, Selleck Chemicals LLC, Houston, TX) and erlotinib (Cat #S7786) were purchased from Selleck Chemicals and reconstituted in dimethyl sulfoxide (DMSO) following the manufacturers recommendations and diluted to 10 mM stock concentration.
Fertilized Japanese quail eggs were incubated and plated as described previously. Quail were allowed to grow ex ovo in six-well plates until the quail had passed the patterning phase (e8 based on plating date). Each experimental arm was assigned n=4 viable quail and treated with one of four experimental conditions: vehicle, cediranib, ertoltinib, and cediranib+erlotinib. […] Stock concentrations were diluted in phosphate-buffered saline (PBS) to the respective target concentrations and to a final volume of 25 μL per agent. DMSO for vehicle was set at the DMSO volume used in the cediranib+erlotinib combination (8.4 μL DMSO).
Vehicle and diluted agents were subsequently applied dropwise to the quail chorioallantoic membrane. Quail were photographed at 0 hours, 24 hours, and 48 hours.
For another series, the system named is HB243 CAM xenograft. In words: Quail dose response assay (ex ovo CAM xenograft, osmotic bead drug depot), HB243. The following applies: Homo sapiens, osmotic bead delivery, 72 hours, read-out: 50% tumor growth inhibition (ex ovo IC50), HB243. The series is classed as in vivo. How it is done:
as §2, §3
(§4) The tumor modules for dose response assay were generated as described above but with 5×10^5 cells per 50 μl. […]

For another series, the system named is HB282 CAM xenograft. In words: Quail dose response assay (ex ovo CAM xenograft, osmotic bead drug depot), HB282. The series is classed as in vivo. The following applies: Homo sapiens, osmotic bead delivery, 72 hours, read-out: 50% tumor growth inhibition (ex ovo IC50), HB282. How it is done:
as §2, §3, §4

In series [8] the test system is HB243 hepatoblastoma cell line. Briefly: In vitro % viability dose-response, HB243. The series is classed as cell-based, human. The note with it: n=4 replicates per point.
The next series has as its system HB243 murine xenografts. Briefly: Murine in vivo xenograft study, HB243. The arrangement: species or system mouse. How it is done: All studies in mice were performed after receiving approval from the institutional animal care and use committee (IACUC) at Children's Cancer Therapy Development Institute and in accordance with ARRIVE Guidelines. HepG2 and HB243 were suspended in Matrigel and injected into n=10 eight week-old female nod scid gamma mice per cell line xenograft (Charles River, Hollister, CA, NOD.CB17-Prkde^scid/NCrCrl) with 2×10^6 cells per 100 μl injection. […] Volasertib (cat #S2235, Selleck Chem) was suspended in 3.75% DMSO and corn oil (cat #C8267, Sigma-Aldrich, St Louis, MO) at a concentration of 1.5 mg/ml with 100 μl injected intraperitoneally with mice chosen for the drug and control group randomly selected to minimize selection bias. The mice were imaged by intraperitoneal injection of luciferin-d according to manufacturer's instructions. The tumors were measured using calipers every 3 days and the equation for volume was […]. At the study end or if the tumors reached 1.5 cc the tumors were removed and measured.
For the murine in vivo xenograft study survival analysis, the tumor endpoint volumes for time-to-event (TTE) analysis were set at 0.75 cc and were collected to 1.5 cc. TTE was defined in days by selecting the day in which the tumor volume equaled or surpassed 0.75 cc. […] The Kaplan-Meier survival plot represents the percentage of animals surviving at different time points during the study. These percentages were generated from the TTE data using GraphPad Prism 9.0 software (Graphpad Software, San Diego, CA, https://www.graphpad.com/scientific-software/prism/). Survival curve comparisons were analyzed using the Mantel-Cox and Gehan-Breslow-Wilcox tests (95% CI) through Graph Pad Prism 9.0 software. For the quail xenograft assay, significance was determined by an unpaired two-tailed t-test with Welch's correction and a p-value less than 0.05 was considered statistically significant. Error bars represent±standard error of the mean (SEM).

Series [9] has as its system HepG2 hepatoblastoma cell line. In words: In vitro % viability dose-response, HepG2. The class given is cell-based. The note with it: Homo sapiens, n=4 replicates per point.
Series [10] concerns HB282 hepatoblastoma cell line. Briefly: In vitro % viability dose-response, HB282. The series is classed as cell-based. The note with it: Homo sapiens, n=4 replicates per point.
Another series relates to HepG2 murine xenografts. In words: Murine in vivo xenograft study, HepG2. Also on record: species or system mouse. The note with it: FIG. 16F. On the procedure:
All studies in mice were performed after receiving approval from the institutional animal care and use committee (IACUC) at Children's Cancer Therapy Development Institute and in accordance with ARRIVE Guidelines. HepG2 and HB243 were suspended in Matrigel and injected into n=10 eight week-old female nod scid gamma mice per cell line xenograft (Charles River, Hollister, CA, NOD.CB17-Prkde^scid/NCrCrl) with 2×10^6 cells per 100 μl injection. […] The tumors were measured using calipers every 3 days and the equation for volume was V=L×W×H×0.5(π/6). At the study end or if the tumors reached 1.5 cc the tumors were removed and measured.
For the murine in vivo xenograft study survival analysis, the tumor endpoint volumes for time-to-event (TTE) analysis were set at 0.75 cc and were collected to 1.5 cc. […] Survival curve comparisons were analyzed using the Mantel-Cox and Gehan-Breslow-Wilcox tests (95% CI) through Graph Pad Prism 9.0 software. For the quail xenograft assay, significance was determined by an unpaired two-tailed t-test with Welch's correction and a p-value less than 0.05 was considered statistically significant. […]

Series [11] has as its system murine glioma cell line GL261. The note with it: literature (Yang, et al.); cited from earlier work.
The subject of series [12] is murine glioma cell line GL261. The note with it: literature (Yang, et al.); cited from earlier work. This is another data set of the same source.

As for `Cc1sc2c(c1C)C(c1ccc(Cl)cc1)=N[C@@H](CC(=O)OC(C)(C)C)c1nnc(C)n1-2` [JQ1], the “efficacy against Hep3B in vivo” value in series [1] was “showed efficacy”.
With `CS(=O)(=O)CCNCc1ccc(-c2ccc3ncnc(Nc4ccc(OCc5cccc(F)c5)c(Cl)c4)c3c2)o1` [lapatinib], in [2], the “dose-response in BT474 xenograft CAM assay” value is recorded as “dose-response relationship”.
As to `Cc1ncsc1-c1ccc(CNC(=O)[C@@H]2C[C@@H](O)CN2C(=O)[C@@H](NC(=O)COCCOCCOCCNC(=O)C[C@@H]2N=C(c3ccc(Cl)cc3)c3c(sc(C)c3C)-n3c(C)nnc32)C(C)(C)C)cc1` [MZ1], the “dose-response in B16F10 xenograft CAM assay” value in series [3] is recorded as “dose-response relationship exists”. Also, the “dose-response in HepG2 xenograft CAM assay” value in series [4] was “dose-response relationship can be observed”.
As to `Cn1c(=O)n(-c2ccc(C(C)(C)C#N)cc2)c2c3cc(-c4cnc5ccccc5c4)ccc3ncc21` [BEZ235], in series [5] (FIG. 14, unpaired two-tailed t-test with Welch's correction), the “significance p, treated (n=6) vs vehicle control (n=4), tumor bioluminescence” value stood at 0.0048. For the same molecule, the “inhibition of tumor growth in u48484 xenograft CAM assay” value in [5] (FIG. 18J) is “drug-related inhibition of tumor growth can be observed”. Moreover, in [5] (Mus musculus, Rhabdomyosarcoma cell, 500 nM in the hydrogel volume, 72 hours on CAM, read-out: reduction in U48484 tumor module bioluminescence (tumor cell viability)), the inhibition at 0.5 µM amounted to 20%.
Regarding `COc1cc2c(Oc3ccc4[nH]c(C)cc4c3F)ncnc2cc1OCCCN1CCCC1` [cediranib], the “maximum clinically-achievable serum concentrations (Cmax) in human patients” value in series [6] is 42 ng/mL. Further, the “remaining viable quail 48 hours after dosing” value in [7] amounted to 3.
In the case of `CC[C@@H]1C(=O)N(C)c2cnc(Nc3ccc(C(=O)N[C@H]4CC[C@H](N5CCN(CC6CC6)CC5)CC4)cc3OC)nc2N1C(C)C` [volasertib], the pIC50 with HB243 CAM xenograft was 5.84; with HB282 CAM xenograft, 5.98; in [8] (Homo sapiens), 6.72; in series [8] it was 6.55; in series [9] it was 6.29; in series [10], 6.04. In addition, the “tumor growth of HB243 mouse xenograft relative to the control group” value in the series with HB243 murine xenografts (FIG. 16E) is given as “statistically significant reduction in growth”. In addition, in the series with HB243 murine xenografts (HB243 mouse xenograft, vs vehicle), the “treatment mice surviving to the endpoint longer than control (average)” value worked out at 4.5 days. For the same molecule, in the series on HB243 murine xenografts (n=4, event = tumor volume equal or greater than 0.75 cc, intraperitoneal), the “survival of HB243 murine xenografts, treatment vs control, p (Mantel-Cox test)” value is given as 0.031. Moreover, in [4] (FIG. 16D, CAM xenograft, osmotic bead delivery, 72 hours), the “sensitivity of HepG2 ex ovo” value is “insensitive at any concentration”. In series [4], the “dose-response in HepG2 xenograft CAM assay” value is listed as “dose-response relationship can be observed”. Moreover, in the series on HepG2 murine xenografts, the “survival / response of HepG2 mouse xenograft” value is “no increase in survival; also recorded: continued to be resistant”.
With `C#Cc1cccc(Nc2ncnc3cc(OCCOC)c(OCCOC)cc23)c1` [erlotinib], in series [6], the “maximum clinically-achievable serum concentrations (Cmax) in human patients” value was 1300 ng/mL. In addition, the “remaining viable quail 48 hours after dosing” value in series [7] is reported as 3.
Turning to `Cc1sc2c(c1C)C(c1ccc(Cl)cc1)=N[C@@H](CC(=O)Nc1ccc(OCCOCCOCCOCCNc3cccc4c3C(=O)N(C3CCC(=O)NC3=O)C4=O)cc1)c1nnc(C)n1-2` (stereo partly shown) [ARV-825], the “efficacy against GL261 in vitro” value in series [11] is “showing efficacy”. In addition, in series [12], the “efficacy against GL261 in vivo” value is given as “showing efficacy”.

As usually defined, the pIC50 is the negative decadic logarithm of the IC50, by convention in mol/L.
